# Laboratory results from patent US20120184536A1, “COMPOSITIONS COMPRISING SPECIFIC UGT INHIBITORS AND METHODS OF USE THEREOF” (The Board of Trustees of the University of Arkansas, priority 2009, published 2012).
# Read-outs that look alike come from different tables or passages of the source.
# Tests used:
# [1] = target: T1, UGT1A10 (Homo sapiens, UniProt Q9HAW8); assay: IC50 assays, inhibition of UGT1A10 glucuronidation (Example 1); format: biochemical; set-up: His; made in house; host or cells: baculovirus-infected Sf9 insect cells
# T1 sequence (Q9HAW8 26-530): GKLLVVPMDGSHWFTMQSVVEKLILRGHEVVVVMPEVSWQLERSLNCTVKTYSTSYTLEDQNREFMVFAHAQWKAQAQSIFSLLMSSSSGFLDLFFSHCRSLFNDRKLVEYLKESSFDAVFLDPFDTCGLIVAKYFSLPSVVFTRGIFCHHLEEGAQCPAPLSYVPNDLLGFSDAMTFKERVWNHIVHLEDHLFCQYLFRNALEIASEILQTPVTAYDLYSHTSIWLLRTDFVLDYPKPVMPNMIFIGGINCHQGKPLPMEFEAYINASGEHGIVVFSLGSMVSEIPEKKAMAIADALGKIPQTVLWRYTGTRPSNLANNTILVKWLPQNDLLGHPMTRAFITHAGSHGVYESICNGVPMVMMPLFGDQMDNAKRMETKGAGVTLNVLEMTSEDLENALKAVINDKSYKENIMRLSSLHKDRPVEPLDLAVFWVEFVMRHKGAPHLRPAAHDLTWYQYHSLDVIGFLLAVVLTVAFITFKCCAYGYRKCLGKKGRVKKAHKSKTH
# Source text: Synthesis of inhibitors was described previously (2).
# [2] = target: T2, UGT2B7 (Homo sapiens, UniProt P16662); assay: IC50 assays, inhibition of UGT2B7 glucuronidation (Example 1)
# T2 sequence (P16662 24-529): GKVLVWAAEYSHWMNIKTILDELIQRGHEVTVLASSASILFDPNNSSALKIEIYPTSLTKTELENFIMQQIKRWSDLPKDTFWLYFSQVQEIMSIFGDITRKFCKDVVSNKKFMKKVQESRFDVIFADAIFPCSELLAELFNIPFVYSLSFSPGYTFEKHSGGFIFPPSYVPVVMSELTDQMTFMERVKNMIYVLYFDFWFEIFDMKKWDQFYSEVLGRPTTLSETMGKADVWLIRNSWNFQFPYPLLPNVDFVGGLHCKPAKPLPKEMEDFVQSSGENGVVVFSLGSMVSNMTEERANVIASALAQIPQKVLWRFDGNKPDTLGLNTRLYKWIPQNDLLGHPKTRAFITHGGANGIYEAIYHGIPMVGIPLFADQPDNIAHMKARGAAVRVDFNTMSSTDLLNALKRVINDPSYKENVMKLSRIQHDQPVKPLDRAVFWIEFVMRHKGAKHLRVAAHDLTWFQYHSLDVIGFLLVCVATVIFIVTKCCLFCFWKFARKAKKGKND
# Experimental: Recombinant UGT Isoform Incubations—Recombinant human UGT2B7 was produced in HEK239 cells as previously described (6). […] For inhibition assays, recombinant UGT membrane protein was incubated in reaction buffer with substrate, inhibitor, and co-substrate as previously described (6, 9).
# IC50 assays—UGT2B7 or 1A10 were incubated with fixed concentrations of each substrate and co-substrate and increasing concentrations of inhibitor.
# (§1) The results of these experiments were analyzed and apparent kinetic and inhibition parameters were determined using Prism 4 software (GraphPad, San Diego, Calif.) and DynaFit (BioKin, Watertown, Mass.). TLC and HPLC Analysis—For inhibition assays using all substrates other than 7-OH-warfarin, aliquots (60 μl) of each incubation were analyzed using thin layer chromatography (TLC) as previously described (3). For inhibition assays using 7-OH-warfarin as a substrate, samples were analyzed using HPLC as described previously (10). Primary standards for the 7-OH-warfarin glucuronide were not available; therefore, product concentrations were estimated using the external standard response for the 7-OH-warfarin substrate.
# [3] = target: T1, UGT1A10; assay: Ki assays / kinetics and inhibition type, UGT1A10 (Example 2); conditions: UGT1A10, Example 2; for Inhibition Type (UDP-GlcUA): UDP-GlcUA varied
# Experimental: Recombinant UGT Isoform Incubations—Recombinant human UGT1A10 and it mutants were produced in baculovirus-infected insect cells as previously described (6, 7). Synthesis of inhibitors was described previously (2). For inhibition assays, UGT recombinant membrane protein (5 μg) was incubated in reaction buffer ([…] Tris-HCl (pH 7.4)/5 mM MgCl2/5 mM saccharolactone) and 2% DMSO with substrate, inhibitor and co-substrate, UDP-GlcUA, in a total volume of 30 μl. Substrates were added in DMSO, and controls were run with each assay. No additional detergents or other activators were used in the incubations. Reactions were started by the addition of co-substrate and incubated at 37° C. (90 min for 8-hydroxywarfarin; 30 min for 4-MU; 30 min for E2). […] Reactions were stopped by addition of 40 μl of ethanol, and all incubations were performed in duplicate.
# TLC Analysis—For inhibition assays using 4-MU, E2, and 8-OH warfarin as substrates, aliquots (60 μl) of each sample were analyzed using thin layer chromatography (TLC) as described previously (3).
# Each sample was centrifuged at 14,000 rpm for 8 min to spin down the protein, and 60 μl of the supernatant was analyzed by HPLC as described previously (8).
# [4] = target: T1, UGT1A10; format: biochemical; set-up: His; made in house; host or cells: baculovirus-infected Sf9 insect cells
# [5] = target: T1, UGT1A10; assay: Ki assays / kinetics and inhibition type, UGT1A10 (Example 1); conditions: for Inhibition Type (UDP-GlcUA): UDP-GlcUA varied
# Experimental: (§2) Recombinant UGT Isoform Incubations—Recombinant human UGT2B7 was produced in HEK239 cells as previously described (6). UGT1A10 was produced as a His-tagged protein in baculovirus-infected Sf9 insect cells as previously described (7, 8). […] For inhibition assays, recombinant UGT membrane protein was incubated in reaction buffer with substrate, inhibitor, and co-substrate as previously described (6, 9).
# (§3) Ki assays—UGT2B7 or 1A10 were incubated with a range of at least four different concentrations of inhibitor using varying concentrations of substrate (Ki(substrate)) with a fixed saturating concentration of cosubstrate or with varying concentrations of co-substrate (Ki(UDP-GlcUA)) and a fixed saturating concentration of substrate (FIG. 4).
# as §1
# [6] = target: T2, UGT2B7; assay: Ki assays / kinetics and inhibition type, UGT2B7 (Example 1); conditions: UGT2B7
# Experimental: as §2, §3, §1
smiles,measurement,setting,value
CCCCCCCCCC(=O)NC(COC(=O)NS(=O)(=O)OCC1OC(n2ccc(=O)[nH]c2=O)C(O)C1O)Cc1ccccc1 (stereo not drawn) [PP55B],IC50,"[1]; 4-MU, read-out: IC50 (Substrate)",8 ± 1 µM
same,IC50,"[1]; 7-OH warfarin, read-out: IC50 (Substrate)",11 ± 2 µM
same,IC50,"[1]; 8-OH warfarin, read-out: IC50 (Substrate)",35 ± 4 µM
same,IC50,"[1]; E2, estimation, some activation at low concentrations, read-out: IC50 (Substrate)",~200 µM
same,IC50,"[1]; co-substrate ~2 x Km, 4-MU in excess, read-out: IC50 (UDP-GlcUA)",15 ± 2 µM
same,IC50,"[1]; co-substrate ~2 x Km, 7-OH warfarin in excess, read-out: IC50 (UDP-GlcUA)",4.9 ± 0.2 µM
same,IC50,"[1]; co-substrate ~2 x Km, 8-OH warfarin in excess, read-out: IC50 (UDP-GlcUA)",14 ± 1 µM
same,IC50,"[1]; co-substrate ~2 x Km, E2 in excess, read-out: IC50 (UDP-GlcUA)",39 ± 11 µM
same,IC50,"[2]; read-out: IC50 (Substrate), linoleic acid ~2 x Km, co-substrate in >5 fold excess",14 µM
same,IC50,"[2]; read-out: IC50 (Substrate), p-nitrophenol (pNP) ~2 x Km, co-substrate in >5 fold excess",75 ± 10 µM
same,Inhibition Type (Substrate),[3]; 4-MU varied,Competitive
same,Inhibition Type (Substrate),[3]; 7-OH warfarin varied,Competitive
same,Inhibition Type (Substrate),[3]; 8-OH warfarin varied,Competitive
same,Inhibition Type (UDP-GlcUA),[3]; 4-MU,Competitive
same,Inhibition Type (UDP-GlcUA),[3]; 7-OH warfarin 3 mM,Mixed
same,Inhibition Type (UDP-GlcUA),[3]; 8-OH warfarin,Competitive
same,Inhibition Type (UDP-GlcUA),[3]; E2 1 mM,Mixed
same,extent of inhibition of UGT1A10 activity toward 7-OH warfarin,[4],did not fully inhibition
same,Inhibition Type (Substrate),[5]; 4-MU varied,noncompetitive and Non-
same,Inhibition Type (Substrate),[5]; 7-OH warfarin varied,Competitive
same,Inhibition Type (Substrate),[5]; 8-OH warfarin varied,Mixed
same,Inhibition Type (Substrate),[5]; E2 varied,Mixed
same,Inhibition Type (UDP-GlcUA),[5]; 4-MU,Competitive
same,Inhibition Type (UDP-GlcUA),[5]; 7-OH warfarin,Competitive
same,Inhibition Type (UDP-GlcUA),[5]; 8-OH warfarin,Competitive
same,Inhibition Type (UDP-GlcUA),[5]; E2,Mixed
same,Ki,"[5]; read-out: Kiapp (Substrate), 4-MU varied",96 µM
same,Ki,"[5]; read-out: Kiapp (Substrate), 7-OH warfarin varied",8.5 µM
same,Ki,"[5]; read-out: Kiapp (Substrate), 8-OH warfarin varied",27 µM
same,Ki,"[5]; read-out: Kiapp (Substrate), E2 varied",200 µM
same,Ki,"[5]; read-out: Kiapp (UDP-GlcUA), UDP-GlcUA varied, 4-MU",5.7 µM
same,Ki,"[5]; read-out: Kiapp (UDP-GlcUA), UDP-GlcUA varied, 7-OH warfarin",4.1 µM
same,Ki,"[5]; read-out: Kiapp (UDP-GlcUA), UDP-GlcUA varied, 8-OH warfarin",26 µM
same,Ki,"[5]; read-out: Kiapp (UDP-GlcUA), UDP-GlcUA varied, E2",6.9 µM
same,Ki,"[5]; read-out: Ki′app (Substrate), 8-OH warfarin varied",136 µM
same,Ki,"[5]; read-out: Ki′app (Substrate), E2 varied",43 µM
same,Ki,"[5]; read-out: Ki′app (UDP-GlcUA), UDP-GlcUA varied, E2",23 µM
same,Inhibition Type (UDP-GlcUA),"[6]; UDP-GlcUA varied, androsterone",Mixed
same,Inhibition Type (UDP-GlcUA),"[6]; UDP-GlcUA varied, linoleic acid",Competitive
same,Inhibition Type (UDP-GlcUA),"[6]; UDP-GlcUA varied, p-nitrophenol",Mixed
same,Inhibition Type (Substrate),[6]; androsterone varied,Mixed
same,Inhibition Type (Substrate),[6]; linoleic acid varied,Competitive
same,Inhibition Type (Substrate),[6]; p-nitrophenol varied,Competitive
same,Ki,"[6]; read-out: Kiapp (Substrate), linoleic acid varied",4.2 µM
same,Ki,"[6]; read-out: Kiapp (Substrate), p-nitrophenol varied",7.6 µM
same,Ki,"[6]; read-out: Kiapp (UDP-GlcUA), UDP-GlcUA varied, linoleic acid",2.5 µM
same,Ki,"[6]; read-out: Kiapp (UDP-GlcUA), UDP-GlcUA varied, p-nitrophenol",2.1 µM
same,Ki,"[6]; read-out: Ki′app (UDP-GlcUA), UDP-GlcUA varied, p-nitrophenol",85 µM
